Entries after “also recorded” stand apart in the source; their conditions may differ.
Columns and labels:
[1] = system: B. subtilis; assay: Kill or inhibit growth/proliferation; morphology, biofilm and growth disruption (Tables 5, 6); type: cell-based, Bacillus subtilis; set-up: key: A: Peptide aggregates; B: Less hyphal formation; Clumps; Diffuse clumps and small polyps; F: Diffuse growth; H: Thin; I: Growth inhibition; Microcolony formation; Rippled; Small polyps; Thick; W: Halo formation on top, microlonies on bottom; also: test concentration or dose not given here
[2] = system: S. epidermidis; assay: as above; type: cell-based, Staphylococcus epidermidis; set-up: key: A: Peptide aggregates; B: Less hyphal formation; Clumps; Diffuse clumps and small polyps; F: Diffuse growth; H: Thin; I: Growth inhibition; Microcolony formation; Rippled; Small polyps; Thick; W: Halo formation on top, microlonies on bottom; also: test concentration or dose not given here
[3] = system: S. pneumoniae; assay: as above; type: cell-based, Streptococcus pneumoniae; set-up: key: A: Peptide aggregates; B: Less hyphal formation; Clumps; Diffuse clumps and small polyps; F: Diffuse growth; H: Thin; I: Growth inhibition; Microcolony formation; Rippled; Small polyps; Thick; W: Halo formation on top, microlonies on bottom; also: test concentration or dose not given here
[4] = system: C. jejuni; assay: as above; type: cell-based, Campylobacter jejuni; set-up: key: A: Peptide aggregates; B: Less hyphal formation; Clumps; Diffuse clumps and small polyps; F: Diffuse growth; H: Thin; I: Growth inhibition; Microcolony formation; Rippled; Small polyps; Thick; W: Halo formation on top, microlonies on bottom; also: test concentration or dose not given here
[5] = system: microorganisms (e.g., bacteria, yeasts, fungi); assay: Targeting peptide binding to target microorganisms (Table 3); settings: preferably 1x PBS; for Target(s) (microorganisms bound by the targeting peptide): peptide binding in aqueous buffers varied by peptide solubility
[6] = system: microorganisms; assay: Peptides having multiple activities (targeting/binding, antimicrobial, growth or phenotype altering)
Source text: In certain embodiments, peptides described herein can have multiple activities. Thus for example, a peptide can have both binding/targeting activity and antimicrobial activity. Such peptides can be used, e.g., in a chimeric construct, for any or all of these properties. Thus, for example, a peptide designated “B” in Table 8 can be used as a targeting peptide. If it is also designated G or M it can also be used for antimicrobial activity.

[7] = system: C. jeikeium; assay: Kill or inhibit growth/proliferation; morphology, biofilm and growth disruption (Tables 5, 6); type: cell-based, Corynebacterium jeikeium; set-up: key: A: Peptide aggregates; B: Less hyphal formation; Clumps; Diffuse clumps and small polyps; F: Diffuse growth; H: Thin; I: Growth inhibition; Microcolony formation; Rippled; Small polyps; Thick; W: Halo formation on top, microlonies on bottom; also: test concentration or dose not given here
[8] = system: M. luteus; assay: as above; type: cell-based, Micrococcus luteus; set-up: key: A: Peptide aggregates; B: Less hyphal formation; Clumps; Diffuse clumps and small polyps; F: Diffuse growth; H: Thin; I: Growth inhibition; Microcolony formation; Rippled; Small polyps; Thick; W: Halo formation on top, microlonies on bottom; also: test concentration or dose not given here
[9] = system: MRSA; assay: as above; type: cell-based, Methicillin-resistant Staphylococcus aureus; set-up: key: A: Peptide aggregates; B: Less hyphal formation; Clumps; Diffuse clumps and small polyps; F: Diffuse growth; H: Thin; I: Growth inhibition; Microcolony formation; Rippled; Small polyps; Thick; W: Halo formation on top, microlonies on bottom; also: test concentration or dose not given here
[10] = system: E. faecalis; assay: as above; type: cell-based, Enterococcus faecalis; set-up: key: A: Peptide aggregates; B: Less hyphal formation; Clumps; Diffuse clumps and small polyps; F: Diffuse growth; H: Thin; I: Growth inhibition; Microcolony formation; Rippled; Small polyps; Thick; W: Halo formation on top, microlonies on bottom; also: test concentration or dose not given here
[11] = system: C. albicans; assay: as above; type: cell-based, Candida albicans; set-up: key: A: Peptide aggregates; B: Less hyphal formation; Clumps; Diffuse clumps and small polyps; F: Diffuse growth; H: Thin; I: Growth inhibition; Microcolony formation; Rippled; Small polyps; Thick; W: Halo formation on top, microlonies on bottom; also: test concentration or dose not given here
[12] = microorganism(s) the targeting peptide binds, peptide binding conducted in aqueous buffers varied by peptide solubility

| Substance | Organism, effect [1] | Organism, effect [2] | Organism, effect [3] | Organism, effect [4] | Activities [6] | Organism, effect [7] | Organism, effect [8] | Organism, effect [9] | Target(s) [5, 12] | Target(s) (microorganisms bound by the targeting peptide) [5] | further results |
| --- | --- | --- | --- | --- | --- | --- | --- | --- | --- | --- | --- |
| PF-061: peptide having multiple activities (chain 1 GYNSYKAVQDVKTHSEEQRVTAKK; chain 2 GYNSYKAVQDVKTHSEEQRVTAKK; Peptide with targeting and/or antimicrobial activity) | B. subtilis (R) | S. epidermidis (R) | S. pneumoniae (R) | C. jejuni (R) | G B |  |  |  |  |  | Target(s) ([5]; microorganism the targeting peptide binds, binding in aqueous buffers varied by peptide solubility): S. epidermidis; also recorded: S. pneumoniae |
| PF-145: peptide having multiple activities (GIVLTGRAGLVSGACSMALGVGLG; Peptide with targeting and/or antimicrobial activity) | B. subtilis (C) | S. epidermidis (D) | S. pneumoniae (R) | C. jejuni (R) | G B | C. jeikeium (R) | M. luteus (A) | MRSA (M) |  |  |  |
| PF-171: peptide having multiple activities (TQVTLCRTW; Peptide with targeting and/or antimicrobial activity) | B. subtilis (D) | S. epidermidis (R) | S. pneumoniae (D) | C. jejuni (R) | G B |  | M. luteus (R) | MRSA (M) |  |  | Target(s) ([5]; microorganism(s) the targeting peptide binds, binding in aqueous buffers depending on peptide solubility): S. epidermidis; also recorded: E. coli; also recorded: P. aeruginosa; also recorded: S. pneumoniae |
| PF-548: peptide having multiple activities (chain 1 ARPIADLIHFNSTTVTASGDVYYGPG; chain 2 ARPIADLIHFNSTTVTASGDVYYGPG; Peptide with targeting and/or antimicrobial activity) | B. subtilis (C) | S. epidermidis (M) | S. pneumoniae (D) | C. jejuni (D) | G B | C. jeikeium (R) | M. luteus (A) | MRSA (M) |  |  |  |
| PF-553: peptide having multiple activities (chain 1 LTIVGNALQQKNQKLLLNQKKITSLG; chain 2 LTIVGNALQQKNQKLLLNQKKITSLG; Peptide with targeting and/or antimicrobial activity) | B. subtilis (D) |  | S. pneumoniae (R) |  | G B | C. jeikeium (R) |  | MRSA (M) | S. epidermidis and E. coli and P. aeruginosa and C. albicans and MRSA and S. pneumoniae and C. jeikeium |  |  |
| PF-556: peptide having multiple activities (chain 1 SLQIRMNTLTAAKASIEAA; chain 2 SLQIRMNTLTAAKASIEAA; Peptide with targeting and/or antimicrobial activity) | B. subtilis (C) | S. epidermidis (A) | S. pneumoniae (D) | C. jejuni (R) | G B | C. jeikeium (D) | M. luteus (A) | MRSA (M) |  |  | Organism, effect [10]: E. faecalis (A) |
| PF-558: peptide having multiple activities (chain 1 ADAPPPLIVRYS; chain 2 ADAPPPLIVRYS; Peptide with targeting and/or antimicrobial activity) | B. subtilis (D) | S. epidermidis (M) | S. pneumoniae (R) | C. jejuni (H) | G B |  |  | MRSA (C) | S. epidermidis; also recorded: E. coli; also recorded: C. albicans; also recorded: C. jeikeium; also recorded: C. jejuni |  |  |
| PF-560: peptide having multiple activities (chain 1 FGNPFRGFTLAMEADFKKRK; chain 2 FGNPFRGFTLAMEADFKKRK; Peptide with targeting and/or antimicrobial activity) | B. subtilis (D) |  | S. pneumoniae (R) | C. jejuni (A) | G B |  |  | MRSA (C) | S. epidermidis; also recorded: M. luteus; also recorded: E. coli; also recorded: S. pneumoniae; also recorded: C. jeikeium; also recorded: C. jejuni |  |  |
| PF-564: peptide having multiple activities (chain 1 TIILNDQINSLQERLNKLNAETDRR; chain 2 TIILNDQINSLQERLNKLNAETDRR; Peptide with targeting and/or antimicrobial activity) | B. subtilis (D) |  |  | C. jejuni (R) | G B | C. jeikeium (R) |  | MRSA (C) | S. epidermidis; also recorded: C. albicans; also recorded: S. pneumoniae; also recorded: C. jeikeium |  |  |
| PF-566: peptide having multiple activities (chain 1 EAQQVTQQLGADFNAITTPTATKV; chain 2 EAQQVTQQLGADFNAITTPTATKV; Peptide with targeting and/or antimicrobial activity) | B. subtilis (C) |  | S. pneumoniae (D) | C. jejuni (D) | G B | C. jeikeium (C) | M. luteus (D) | MRSA (M) | P. mirabilis; also recorded: S. pneumoniae |  |  |
| PF-645 (chain 1 SNSVQQG; chain 2 SNSVQQG; Peptide with targeting and/or antimicrobial activity) |  |  | S. pneumoniae (I) |  |  |  |  |  |  | Mycobacteria spp | Organism, effect [11]: C. albicans (B) |
| PF-646 (chain 1 APASPGRRPG; chain 2 APASPGRRPG; Peptide with targeting and/or antimicrobial activity) |  |  |  |  |  |  |  |  |  | Mycobacteria spp | Organism, effect (morphology, biofilm and growth disruption) [3]: S. pneumoniae (H); Organism, effect [11]: C. albicans (B) |
| PF-647 (chain 1 GTFLGQKCAAATAS; chain 2 GTFLGQKCAAATAS; Peptide with targeting and/or antimicrobial activity) |  |  |  |  |  |  |  |  |  | Mycobacteria spp | Organism, effect (morphology, biofilm and growth disruption) [3]: S. pneumoniae (R); Organism, effect (morphology, biofilm and growth disruption) [11]: C. albicans (B) |
| PF-654 (chain 1 LSGRLAGRR; chain 2 LSGRLAGRR; Peptide with targeting and/or antimicrobial activity) |  |  |  |  |  |  |  |  |  | Mycobacteria spp | Organism, effect (morphology, biofilm and growth disruption) [9]: MRSA (R); Organism, effect (morphology, biofilm and growth disruption) [3]: S. pneumoniae (A); Organism, effect (morphology, biofilm and growth disruption) [11]: C. albicans (B) |
| PF-697 (chain 1 RADARAK; chain 2 RADARAK; Peptide with targeting and/or antimicrobial activity) |  |  |  |  |  |  |  |  |  | Mycobacteria spp | Organism, effect (morphology, biofilm and growth disruption) [3]: S. pneumoniae (H); Organism, effect (morphology, biofilm and growth disruption) [11]: C. albicans (H) |
